≈ marks a conversion by molar mass, not a printed value.
Experiments:
[1] = test system: Genetically sound-sensitive male mice; assay: Audiogenic seizures in mice; type: in vivo; details: audiogenic seizure-susceptible mice, i.p.
From the text: Audiogenic seizures in mice: Genetically sound-sensitive male mice (16-28 g; n=10 per group), responding with wild running, clonic and tonic convulsions to an acoustic stimulation, were used. Audiogenic seizures were induced by an acoustic stimulus (90 dB, 10-20 kHz) applied for 30 s.

[2] = Water solubility of the active ingredient
rat hippocampal slices [3] = assay: Epileptiform responses in hippocampal slices (field potentials in CA3 area); type: cell-based, Sprague-Dawley rats; design: effect on rate of spontaneous field bursting: dose or concentration left out as unconfirmed; details: for effect on rate of spontaneous field bursting: HKLCF; for effect on epileptiform responses (evoked PS1 amplitude, repetitive PSs): HKLCF perfusion (K+ 7.5 mM; Ca2+ 0.5 mM), fimbrial stimulation
Procedure: The effect of brivaracetam on epileptiform responses induced by high-K+/low-Ca2+ concentrations or by bicuculline was examined in transverse hippocampal slices prepared from Sprague-Dawley rats according to previously reported standard procedures. The epileptiform responses were induced by passing from a normal perfusion of artificial cerebrospinal fluid (ACSF) (K+3 mM; Ca2+2.4 mM) to either high-K+/low-Ca2+ fluid (HKLCF) (K+7.5 mM; Ca2+0.5 mM) or to […] bicuculline methiodide (BMI)-containing ACSF.
Extracellular field potentials (FPs) were recorded in the CA3 area of the slices with 2 M NaCl-filled glass microelectrodes. The evoked FPs were recorded at 10-min intervals in response to fimbrial stimulation with constant current rectangular pulses that elicit a single population spike (PS) of 50-75% of the maximal amplitude when the slice is in ACSF. In the HKLCF model, 2 min of spontaneous activity were also recorded, in the middle of each 10-min interval between the recordings of evoked responses.
Either brivaracetam or levetiracetam was added to the bathing fluid of the slices 20 min before shifting from ACSF to either HKLCF or […] BMI-containing ACSF, and was kept in the perfusion fluid throughout the experiment.

[4] = test system: fully amygdala-kindled rats; assay: Fully amygdala-kindled rats; type: in vivo; details: for dose significantly reducing after-discharge duration: highest dose tested
mice [5] = assay: Corneal kindling of mice; type: in vivo
mice [6] = assay: Maximal electroshock in mice; type: in vivo; details: i.p. 30 min before seizure induction; higher ED50 values than audiogenic model
mice [7] = assay: Chemically induced seizures in mice (pentylenetetrazol); type: in vivo; details: i.p. 30 min before seizure induction; higher ED50 values than audiogenic model
Procedure: The dose was selected based on dose-effect curves in saline-treated animals as the convulsive dose inducing clonic convulsions of all four extremities in 97% of the animals. Immediately after administration of the chemoconvulsant, the mice were placed individually in small plastic cages (25 13 8 cm) and observed for the presence of clonic convulsions in all four extremities, for 60 min. The occurrence of tonic convulsions (hindlimb extension) and mortality was also recorded during this interval.

GAERS rats = assay: Spontaneous SWDs in GAERS rats; type: in vivo
rat hippocampal slices [8] = details: background statement; cited from earlier work

| Compound | protection against clonic convulsions [1] | solubility [2] | effect on rate of spontaneous field bursting (rat hippocampal slices [3]) | effect on epileptiform responses (evoked PS1 amplitude, repetitive PSs) (rat hippocampal slices [3]) | BCS class (BCS classification) | dose from which significant suppression in motor-seizure severity was induced [4] | dose significantly reducing after-discharge duration [4] | incidence of generalized motor seizures after termination of treatment (mice [5]; continued corneal stimulations, group previously treated with the highest dose) | incidence of generalized motor seizures (mice [5]; pretreatment during corneal kindling) | protection against tonic hindlimb extension induced by maximal electroshock (mice [6]) | protection against clonic convulsions induced by pentylenetetrazol (mice [7]) | dose from which spontaneous SWDs were significantly suppressed (GAERS rats) | dose giving complete inhibition of spontaneous SWDs (GAERS rats; highest dose tested) | effect on epileptiform responses induced by high-K+/low-Ca2+ and by bicuculline (rat hippocampal slices [8]) |
| --- | --- | --- | --- | --- | --- | --- | --- | --- | --- | --- | --- | --- | --- | --- |
| CCC[C@@H]1CC(=O)N([C@@H](CC)C(N)=O)C1 [Brivaracetam, (2S)-2-[(4R)-2-oxo-4-propyl-pyrrolidin-1-yl]butanamide] | protected against the expression of clonic convulsions | ~700 mg/mL (≈ 3300 mM) | reduced the rate of this spontaneous bursting | reduced these epileptiform responses | BCS I | 21.2 mg/kg | 212.3 mg/kg | persistent reduction in the incidence of generalized motor seizures | significant reduction in the incidence of generalized motor seizures | protected | protected against clonic convulsions | 2.1 mg/kg | 67.9 mg/kg |  |
| CC[C@@H](C(N)=O)N1CCCC1=O [Levetiracetam] | protected against the expression of clonic convulsions |  | not | reduced these epileptiform responses |  | 170 mg/kg | > 1700 mg/kg |  |  |  |  |  |  | reduces epileptiform responses |
